Results reported in US9695155B2, “Herbicidal substituted pyrimidinyloxy benzene compounds” (E. I. DU PONT DE NEMOURS AND COMPANY, priority 2013, dated 2017).

Columns and labels:
morningglory [1] = assay: Test A postemergence; type: in vivo, Ipomoea spp.; details: 0 to 100 scale where 0 is no effect and 100 is complete control; for Morningglory plant response rating: 125 g ai/ha; for Plant response rating, Morningglory: 500 g ai/ha
Procedure, shortened: (§1)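 Visual injury scored 0–100 (100 = complete control) against untreated controls about 10 days after treatment in a greenhouse. Test chemicals, formulated with surfactant in non-phytotoxic solvent, were sprayed on soil preemergence or on 2-10 cm, one- to two-leaf plants postemergence.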

large (Lg) crabgrass [2] = assay: Test A preemergence; type: in vivo, Digitaria sanguinalis; details: for Plant response rating, Crabgrass, Large / Crabgrass, Large plant response rating: 0 to 100 scale where 0 is no effect and 100 is complete control; for Crabgrass, Large plant response rating: 500 g ai/ha
Procedure, shortened: as §1

corn [3] = assay: Test A preemergence; type: in vivo, Zea mays; details: for Plant response rating, Corn / Corn plant response rating: 0 to 100 scale where 0 is no effect and 100 is complete control; for Corn plant response rating: 500 g ai/ha
Procedure, shortened: as §1

rice = assay: Test B flooded paddy test; type: in vivo, Oryza sativa; details: Flood, 250 g ai/ha; 0 to 100 scale where 0 is no effect and 100 is complete control
Procedure, shortened: (§2)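 Greenhouse flooded-pot test: compounds dosed into 3 cm standing water over 2-leaf plants, flood held constant. Rated visually after 13–15 days on 0–100 (complete control = 100); a dash marks no test result.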

barnyardgrass [4] = assay: Test A preemergence; type: in vivo, Echinochloa crus-galli; details: for Plant response rating, Barnyardgrass / Barnyardgrass plant response rating: 0 to 100 scale where 0 is no effect and 100 is complete control; for Barnyardgrass plant response rating: 500 g ai/ha
Procedure, shortened: as §1

large (Lg) crabgrass [5] = assay: Test A postemergence; type: in vivo, Digitaria sanguinalis; details: 0 to 100 scale where 0 is no effect and 100 is complete control; for Crabgrass, Large plant response rating: 125 g ai/ha; for Plant response rating, Crabgrass, Large: 500 g ai/ha
Procedure, shortened: as §1

Heteranthera limosa = assay: Test B flooded paddy test; type: in vivo; details: Flood, 250 g ai/ha; 0 to 100 scale where 0 is no effect and 100 is complete control
Procedure, shortened: as §2

giant foxtail [6] = assay: Test A postemergence; type: in vivo, Setaria faberii; details: 0 to 100 scale where 0 is no effect and 100 is complete control; for Foxtail, Giant plant response rating: 125 g ai/ha; for Plant response rating, Foxtail, Giant: 500 g ai/ha
Procedure, shortened: as §1

wheat [7] = assay: Test A postemergence; type: in vivo, Triticum aestivum; details: 0 to 100 scale where 0 is no effect and 100 is complete control; for Wheat plant response rating: 125 g ai/ha; for Plant response rating, Wheat: 500 g ai/ha
Procedure, shortened: as §1

pigweed [8] = assay: Test A postemergence; type: in vivo, Amaranthus retroflexus; details: 0 to 100 scale where 0 is no effect and 100 is complete control; for Pigweed plant response rating: 125 g ai/ha; for Plant response rating, Pigweed: 500 g ai/ha
Procedure, shortened: as §1

barnyardgrass [9] = assay: Test A postemergence; type: in vivo, Echinochloa crus-galli; details: 0 to 100 scale where 0 is no effect and 100 is complete control; for Barnyardgrass plant response rating: 125 g ai/ha; for Plant response rating, Barnyardgrass: 500 g ai/ha
Procedure, shortened: as §1

morningglory [10] = assay: Test A preemergence; type: in vivo, Ipomoea spp.; details: for Morningglory plant response rating: 500 g ai/ha
Procedure, shortened: as §1

wheat [11] = assay: Test A preemergence; type: in vivo, Triticum aestivum; details: for Wheat plant response rating: 500 g ai/ha
Procedure, shortened: as §1

pigweed [12] = assay: Test A preemergence; type: in vivo, Amaranthus retroflexus; details: for Pigweed plant response rating: 500 g ai/ha
Procedure, shortened: as §1

velvetleaf [13] = assay: Test A postemergence; type: in vivo, Abutilon theophrasti; details: 0 to 100 scale where 0 is no effect and 100 is complete control; for Velvetleaf plant response rating: 125 g ai/ha; for Plant response rating, Velvetleaf: 500 g ai/ha
Procedure, shortened: as §1

velvetleaf [14] = assay: Test A preemergence; type: in vivo, Abutilon theophrasti; details: for Velvetleaf plant response rating: 500 g ai/ha
Procedure, shortened: as §1

corn [15] = assay: Test A postemergence; type: in vivo, Zea mays; details: 0 to 100 scale where 0 is no effect and 100 is complete control; for Corn plant response rating: 125 g ai/ha; for Plant response rating, Corn: 500 g ai/ha
Procedure, shortened: as §1

sedge, umbrella = assay: Test B flooded paddy test; type: in vivo, Cyperus difformis; details: Flood, 250 g ai/ha; 0 to 100 scale where 0 is no effect and 100 is complete control
Description: (§3) Plant species in the flooded paddy test selected from rice (Oryza sativa), sedge, umbrella (small-flower umbrella sedge, Cyperus difformis), (Heteranthera limosa), and barnyardgrass (Echinochloa crus-galli) were grown to the 2-leaf stage for testing. At time of treatment, test pots were flooded to 3 cm above the soil surface, treated by application of test compounds directly to the paddy water, and then maintained at that water depth for the duration of the test. Treated plants and controls were maintained in a greenhouse for 13 to 15 days, after which time all species were compared to controls and visually evaluated. Plant response ratings, summarized in Table B, are based on a scale of 0 to 100 where 0 is no effect and 100 is complete control. A dash (-) response means no test result.

barnyardgrass [16] = assay: Test B flooded paddy test; type: in vivo, Echinochloa crus-galli; details: Flood, 250 g ai/ha; 0 to 100 scale where 0 is no effect and 100 is complete control
Description: as §3

giant foxtail [17] = assay: Test A preemergence; type: in vivo, Setaria faberii; details: for Plant response rating, Foxtail, Giant / Foxtail, Giant plant response rating: 0 to 100 scale where 0 is no effect and 100 is complete control; for Foxtail, Giant plant response rating: 500 g ai/ha
Procedure, shortened: as §1

[18] = 125 g ai/ha, 0 to 100 scale where 0 is no effect and 100 is complete control
[19] = 0 to 100 scale where 0 is no effect and 100 is complete control

Row | SMILES | Morningglory plant response rating (morningglory [1]) | Plant response rating, Morningglory (morningglory [1]) | Crabgrass, Large plant response rating (large (Lg) crabgrass [2]) | Corn plant response rating (corn [3]) | Plant response rating, Rice (rice) | Barnyardgrass plant response rating (barnyardgrass [4]) | Crabgrass, Large plant response rating (large (Lg) crabgrass [5]) | Plant response rating, Crabgrass, Large (large (Lg) crabgrass [5]) | Plant response rating, Ducksalad (Heteranthera limosa) | Foxtail, Giant plant response rating (giant foxtail [6]) | Plant response rating, Foxtail, Giant (giant foxtail [6]) | Wheat plant response rating (wheat [7]) | Plant response rating, Wheat (wheat [7]) | Pigweed plant response rating (pigweed [8]) | Plant response rating, Pigweed (pigweed [8]) | Barnyardgrass plant response rating (barnyardgrass [9]) | Plant response rating, Barnyardgrass (barnyardgrass [9]) | Morningglory plant response rating (morningglory [10]; [19]) | Wheat plant response rating (wheat [11]; [19]) | Pigweed plant response rating (pigweed [12]; [19]) | also measured
1 | O=Cc1cccc(Oc2ncc(Br)cn2)c1-n1cc(C(F)(F)F)cn1 [Compound 161] | 0 | 0 | 0 | 0 | 0 | 10 | 0 | 0 | 0 | 0 | 0 | 0 | 0 | 50 | 80 | 0 | 0 | 0 | 0 | 100 | Plant response rating, Crabgrass, Large (large (Lg) crabgrass [2]; 125 g ai/ha): 0; Plant response rating, Corn (corn [3]; 125 g ai/ha): 0; Plant response rating, Barnyardgrass (barnyardgrass [4]; 125 g ai/ha): 0; Plant response rating, Morningglory (morningglory [10]; [18]): 0; Plant response rating, Wheat (wheat [11]; [18]): 0; Plant response rating, Pigweed (pigweed [12]; [18]): 90; Velvetleaf plant response rating (velvetleaf [13]): 10; Plant response rating, Velvetleaf (velvetleaf [13]): 20; Plant response rating, Velvetleaf (velvetleaf [14]; [18]): 10; Velvetleaf plant response rating (velvetleaf [14]; [19]): 20; Corn plant response rating (corn [15]): 0; Plant response rating, Corn (corn [15]): 0; Plant response rating, Sedge, Umbrella (sedge, umbrella): 0; Plant response rating, Barnyardgrass (barnyardgrass [16]): 0; Plant response rating, Foxtail, Giant (giant foxtail [17]; 125 g ai/ha): 0; Foxtail, Giant plant response rating (giant foxtail [17]): 0
2 | Clc1cnc(Oc2cccc(Cl)c2-n2cc(Br)cn2)nc1 [Compound 219] | 70 | 100 | 100 | 10 | 0 | 90 | 90 | 100 | 100 | 70 | 90 | 0 | 70 | 100 | 100 | 50 | 100 | 10 | 0 | 100 | Crabgrass, Large plant response rating (0 to 100 scale) (large (Lg) crabgrass [2]; 125 g ai/ha): 100; Corn plant response rating (0 to 100 scale) (corn [3]; 125 g ai/ha): 0; Barnyardgrass plant response rating (0 to 100 scale, 0 is no effect, 100 is complete control) (barnyardgrass [4]; 125 g ai/ha): 30; Morningglory plant response rating (0 to 100 scale) (morningglory [10]; 125 g ai/ha): 0; Wheat plant response rating (0 to 100 scale) (wheat [11]; 125 g ai/ha): 0; Pigweed plant response rating (0 to 100 scale) (pigweed [12]; 125 g ai/ha): 100; Velvetleaf plant response rating (velvetleaf [13]): 100; Plant response rating, Velvetleaf (velvetleaf [13]): 100; Velvetleaf plant response rating (0 to 100 scale) (velvetleaf [14]; 125 g ai/ha): 10; Velvetleaf plant response rating (velvetleaf [14]; [19]): 20; Corn plant response rating (corn [15]): 20; Plant response rating, Corn (corn [15]): 70; Plant response rating, Sedge, Umbrella (sedge, umbrella): 85; Plant response rating, Barnyardgrass (barnyardgrass [16]): 0; Foxtail, Giant plant response rating (0 to 100 scale) (giant foxtail [17]; 125 g ai/ha): 100; Foxtail, Giant plant response rating (giant foxtail [17]): 100
3 | FC(F)c1cccc(Oc2ncc(I)cn2)c1-n1cc(Br)cn1 [Compound 173] | 0 | 0 | 80 | 0 | 0 | 30 | 0 | 40 | 0 | 10 | 50 | 0 | 0 | 100 | 100 | 0 | 30 | 0 | 0 | 100 | Plant response rating, Crabgrass, Large (large (Lg) crabgrass [2]; 125 g ai/ha): 20; Plant response rating, Corn (corn [3]; 125 g ai/ha): 0; Plant response rating, Barnyardgrass (barnyardgrass [4]; 125 g ai/ha): 0; Morningglory plant response rating (0 to 100 scale) (morningglory [10]; 125 g ai/ha): 0; Wheat plant response rating (0 to 100 scale) (wheat [11]; 125 g ai/ha): 0; Pigweed plant response rating (0 to 100 scale) (pigweed [12]; 125 g ai/ha): 80; Velvetleaf plant response rating (velvetleaf [13]): 60; Plant response rating, Velvetleaf (velvetleaf [13]): 70; Velvetleaf plant response rating (0 to 100 scale) (velvetleaf [14]; 125 g ai/ha): 0; Velvetleaf plant response rating (velvetleaf [14]; [19]): 0; Corn plant response rating (corn [15]): 0; Plant response rating, Corn (corn [15]): 20; Plant response rating, Sedge, Umbrella (sedge, umbrella): 0; Plant response rating, Barnyardgrass (barnyardgrass [16]): 0; Plant response rating, Foxtail, Giant (giant foxtail [17]; 125 g ai/ha): 50; Foxtail, Giant plant response rating (giant foxtail [17]): 70
